# Reference: US20260294839A1, “COMPOSITION AND METHOD OF MAKING” (priority 2023, published 2026)
# Like-named read-outs stand apart in the source and are kept apart here.
# Tests used:
# [1] = test system: consortium of C. albicans and A. brasiliensis; assay: ISO 11930 preservative effectiveness, fungal consortium; format: cell-based; conditions: for log reduction at 5 % / log reduction at 15 % / log reduction at 50 % / Nx: diluted in aqueous solution; for log reduction at 5 % / log reduction at 15 % / log reduction at 50 %: read-out: Rx (log reduction)
# Description: (§1) The ISO 11930 industry standard test was to used measure the effectiveness of the compound to act as a preservative (growth inhibition) for up to 28 days (as tested). Preservative action is used to prevent spoilage and contamination of food, cosmetics, and drugs. First, compositions of the invention were diluted in Glycerol (Tables 7 to 8).
# (§2) Next, compositions of the invention were diluted in aqueous solution.
# Also according to ISO 11930, compositions of the invention produced a log reduction of >3.27 logs at a concentration of 50.0% v/v, 15.0% v/v, and 5.0% v/v as tested after 7 days, 14 days and 28 days at 25° C. against a consortium of Candida albicans ATCC 10231 and Aspergillus brasiliensis ATCC 16404 (Table 10). […]
# [2] = test system: consortium of S. aureus, E. coli and P. aeruginosa; assay: ISO 11930 preservative effectiveness, bacterial consortium; format: cell-based; conditions: for log reduction at 50 % v/v: 50.0% v/v aqueous; for log reduction at 5 % / log reduction at 15 % / log reduction at 50 % / Nx: diluted in aqueous solution; for log reduction at 5 % / log reduction at 15 % / log reduction at 50 %: read-out: Rx (log reduction)
# Description: as §1, §2
# According to ISO 11930, compositions of the invention produced a log reduction of >4.14 logs at a concentration of 50.0% v/v, 15.0% v/v, and 5.0% v/v as tested after 7 days, 14 days and 28 days at 25° C. against a consortium of Staphylococcus aureus ATCC 6538, Escherichia coli NCTC 10536 and Pseudomonas aeruginosa ATCC 15442 (Table 9). […]
# Staphylococcus aureus = assay: Non-peroxide activity (NPA) plate assay with catalase; format: cell-based; conditions: duplicate or triplicate mean; invention sample 1 fresh, 2-5 stored 234 days (37° C., room temperature, fridge, freezer)
# Description: In this test, the enzyme catalase was added to the sample to rapidly break down hydrogen peroxide to water and oxygen. […] The test was carried out using a Gram-positive bacteria, Staphylococcus aureus. The result is a value in % w/v relative to phenol standards. Two honey samples and several control samples consisting of glycerol with additional components were tested alongside the composition of the invention samples and the results are shown in Table 4. Samples were run in duplicate or triplicate and the mean result calculated.
# […] of the composition of the invention were tested: • Sample 1: a freshly made sample • Sample 2: stored for 234 days in a 37° C. incubator • Sample 3: stored for 234 days at room temperature • Sample 4: stored for 234 days in a fridge • Sample 5: stored for 234 days in a freezer
# The NPA assay was used, as previously in Example 3.
# [3] = if it accumulates excessively at the wound site; cited from earlier work
# [4] = ISO 11930, aqueous solution, 25° C.
compound,measurement,setting,value
"OCC(O)CO [Glycerol, glycerol]",log reduction,"[1]; 50.0%, 15.0%, 5.0% v/v, 7, 14 and 28 days, 25° C.",did not produce a measurable log reduction
same,log reduction at 5 %,"[1]; 168 h, 5% (V/V), day 7",< 1.65
same,log reduction at 15 %,"[1]; 168 h, 15% (V/V), day 7",< 1.65
same,log reduction at 50 %,"[1]; 168 h, 50% (V/V), day 7",< 1.65
same,log reduction at 5 %,"[1]; 336 h, 5% (V/V), day 14",< 1.65
same,log reduction at 15 %,"[1]; 336 h, 15% (V/V), day 14",< 1.65
same,log reduction at 50 %,"[1]; 336 h, 50% (V/V), day 14",< 1.65
same,log reduction at 5 %,"[1]; 672 h, 5% (V/V), day 28",< 1.65
same,log reduction at 15 %,"[1]; 672 h, 15% (V/V), day 28",< 1.65
same,log reduction at 50 %,"[1]; 672 h, 50% (V/V), day 28",< 1.65
same,Preservation Criteria A for fungi,[1]; [4],does not conform to Preservation Criteria A for fungi
same,Nx,"[1]; 5% (V/V), day 0",>3.30E+03
same,Nx,"[1]; 5% (V/V), day 7",>3.30E+03
same,Nx,"[1]; 5% (V/V), day 14",>3.30E+03
same,Nx,"[1]; 5% (V/V), day 28",>3.30E+03
same,Nx,"[1]; 15% (V/V), day 0",>3.30E+03
same,Nx,"[1]; 15% (V/V), day 7",>3.30E+03
same,Nx,"[1]; 15% (V/V), day 14",>3.30E+03
same,Nx,"[1]; 15% (V/V), day 28",>3.30E+03
same,Nx,"[1]; 50% (V/V), day 0",>3.30E+03
same,Nx,"[1]; 50% (V/V), day 7",>3.30E+03
same,Nx,"[1]; 50% (V/V), day 14",>3.30E+03
same,Nx,"[1]; 50% (V/V), day 28",>3.30E+03
same,"level at which it is a preservative, fungi","[1]; not tested, shows a fail at 50.0%",> 60.0%
same,"level at which it is a preservative, bacteria",[2],> 50.0 % V/V
same,log reduction at 50 % v/v,"[2]; 14 days and 28 days, 25° C.",> 4.21
same,log reduction at 50 % v/v,"[2]; 168 h, 7 days, 25° C.",3.67
same,log reduction at 5 %,"[2]; 168 h, 5% (V/V), day 7",< 2.84
same,log reduction at 15 %,"[2]; 168 h, 15% (V/V), day 7",< 2.84
same,log reduction at 50 %,"[2]; 168 h, 50% (V/V), day 7",3.67
same,log reduction at 5 %,"[2]; 336 h, 5% (V/V), day 14",< 2.84
same,log reduction at 15 %,"[2]; 336 h, 15% (V/V), day 14",3.28
same,log reduction at 50 %,"[2]; 336 h, 50% (V/V), day 14",> 4.21
same,log reduction at 5 %,"[2]; 672 h, 5% (V/V), day 28",< 2.84
same,log reduction at 15 %,"[2]; 672 h, 15% (V/V), day 28",> 4.21
same,log reduction at 50 %,"[2]; 672 h, 50% (V/V), day 28",> 4.21
same,Preservation Criteria A for bacteria,[2]; [4],conforms to Preservation Criteria A for bacteria
same,Nx,"[2]; 5% (V/V), day 0",>3.30E+03
same,Nx,"[2]; 5% (V/V), day 7",>3.30E+03
same,Nx,"[2]; 5% (V/V), day 14",>3.30E+03
same,Nx,"[2]; 5% (V/V), day 28",>3.30E+03
same,Nx,"[2]; 15% (V/V), day 0",>3.30E+03
same,Nx,"[2]; 15% (V/V), day 7",>3.30E+03
same,Nx,"[2]; 15% (V/V), day 14",1.20E+03
same,Nx,"[2]; 15% (V/V), day 28",<1.40E+02
same,Nx,"[2]; 50% (V/V), day 0",>3.30E+03
same,Nx,"[2]; 50% (V/V), day 7",4.95E+02
same,Nx,"[2]; 50% (V/V), day 14",<1.40E+02
same,Nx,"[2]; 50% (V/V), day 28",<1.40E+02
same,"NPA, Mean Result",Staphylococcus aureus,<9.5 % w/v phenol equivalent
"[Ag] [Silver, silver]",effect on wound healing,[3],inhibit healing
